Columns and labels:
[1] = Stability of the Gd complex (pGd) by UV-visible spectrophotometry in HEPES buffer pH 7.4; type: physicochemical; conditions: pH 7.4, HEPES, [M]total=1 mM, [bpatcn]total=10 mM
Protocol: Appreciably, the interaction between the lanthanide ions and the ligand was monitored by UV-visible spectrophotometry for a representative ion of intermediate size, namely Gd in dilute aqueous solutions, buffered with HEPES at pH 7.4. The value of pGd (pM=−log [M]free at pH 7.4, [M]total=1 mM and [bpatcn]total=10 mM), which allows a simple and direct comparison of the stabilities of the complexes under physiological conditions, found for thqtcn-SO3^6−(19) is similar to the value reported for the gadolinium complexes of diethylenetriaminepentaacetic acid (dtpa) (pGd=19.6), which are widely acknowledged as non-toxic.

[2] = Potentiometric titration of the ligand with KOH: deprotonation constants; type: physicochemical; conditions: titration with KOH in KCl 0.1M, 298 K
Excerpt: (§1) The three sulfonates are fully deprotonated under the experimental conditions used. The deprotonation constants of H9thqtcn-SO3^3+ are defined as Kai=[H9-iL]^(1-i) [H]^+/[H8-iL]^(2-i)+. Analysis of the potentiometric curves enabled precise determination of 6 deprotonation constants (pKa8=2.9(2), pKa7=5.34(5), pKa6=8.01(8), pKa5=8.78(1), pKa4=8.98(4), pKa3=10.25(2)), whereas it was possible only to obtain the sum pKa1+pKa2=(22.51(3)).

Solubility observations = type: physicochemical; conditions: aqueous, potentiometric titration conditions
Excerpt: as §1
The elemental analyses of all the complexes are compatible with the presence of analytically pure [Ln(thqtcn)] species. These complexes are insoluble in all the commonly used laboratory solvents.
As hoped, this ligand results in Ln(III) complexes that are water-soluble at physiological pHs.

[3] = gadolinium complexes of dtpa; cited from earlier work

Row | Compound | pGd (pM=-log [M]free) [1] | pKa3 [2] | pKa4 [2] | pKa5 [2] | pKa6 [2] | pKa7 [2] | pKa8 [2] | sum pKa1+pKa2 [2] | solubility of the ligand (Solubility observations) | pGd (reported value) [3]
1 | 1,4,7-tris[2-(5-sulfo-8-hydroxyquinolinyl)methyl]-1,4,7-triaza-cyclononane [H6thqtcn-SO3] | 19 | 10.25(2) | 8.98(4) | 8.78(1) | 8.01(8) | 5.34(5) | 2.9(2) | 22.51(3) | high solubility | –
2 | O=C(O)CN(CCN(CC(=O)O)CC(=O)O)CCN(CC(=O)O)CC(=O)O [dtpa, diethylenetriaminepentaacetic acid] | – | – | – | – | – | – | – | – | – | 19.6
